Measurements published in ChEMBL document CHEMBL1201862, “PubChem BioAssay data set” (2004).
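Values below derive from 48-hour exposures of cells grown in 96-well plates, with endpoints linearly interpolated between the two concentrations bracketing the appropriate inhibition level. GI50 = concentration required for 50% inhibition of growth.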 Calls of active or inactive are those of the source. Cut-off read from the data, not from the text of the source: active = GI50 up to about 1.1 µM and inactive = higher.

Assays:
Test in all cases: inhibition of tumour cell growth, NCI panel, 48 h
OVCAR-3 = system: OVCAR-3
SF-539 = system: SF-539
OVCAR-8 = system: OVCAR-8
HT-29 = system: HT-29
Hs-578T = system: Hs-578T
ACHN = system: ACHN
K562 = system: K562
SNB-75 = system: SNB-75
UACC-257 = system: UACC-257
PC-3 = system: PC-3
MOLT-4 = system: MOLT-4
SR = system: SR
COLO 205 = system: COLO 205
BT-549 = system: BT-549
MDA-N = system: MDA-N
RPMI-8226 = system: RPMI-8226
SW-620 = system: SW-620
UO-31 = system: UO-31
MDA-MB-435 = system: MDA-MB-435
M19-MEL = system: M19-MEL

SMILES	GI50 (OVCAR-3)	GI50 (SF-539)	GI50 (OVCAR-8)	GI50 (HT-29)	GI50 (Hs-578T)	GI50 (ACHN)	GI50 (K562)	GI50 (SNB-75)	GI50 (UACC-257)	GI50 (PC-3)	GI50 (MOLT-4)	GI50 (SR)	GI50 (COLO 205)	GI50 (BT-549)	GI50 (MDA-N)	GI50 (RPMI-8226)	GI50 (SW-620)	GI50 (UO-31)	GI50 (MDA-MB-435)	GI50 (M19-MEL)
COc1ccc(C2=Nn3c(nc4sc(C)c(C)c4c3=O)SC2)cc1	> 100 µM (inactive)	> 100 µM (inactive)	> 100 µM (inactive)	> 100 µM (inactive)	> 100 µM (inactive)	> 100 µM (inactive)	> 100 µM (inactive)	> 100 µM (inactive)	> 100 µM (inactive)	> 100 µM (inactive)	> 100 µM (inactive)	> 100 µM (inactive)	> 100 µM (inactive)	> 100 µM (inactive)	> 100 µM (inactive)	> 100 µM (inactive)	> 100 µM (inactive)	> 100 µM (inactive)	> 100 µM (inactive)	
CC(C)(C)c1ccc2c(c1)S(=O)(=O)Nc1cccc(c1)NS(=O)(=O)c1cc(C(C)(C)C)ccc1OCCOCCO2	> 100 µM (inactive)	> 100 µM (inactive)	> 100 µM (inactive)	> 100 µM (inactive)		> 100 µM (inactive)	> 100 µM (inactive)	> 100 µM (inactive)	> 100 µM (inactive)		> 100 µM (inactive)		> 100 µM (inactive)			23.6 µM (inactive)	> 100 µM (inactive)	> 100 µM (inactive)		> 100 µM (inactive)
Cc1ccc(S(=O)(=O)N/N=C(\c2nc3ccc(Cl)cc3[nH]c2=O)C(O)c2ccco2)cc1 (stereo unspecified)	> 100 µM (inactive)	> 100 µM (inactive)		> 100 µM (inactive)		> 100 µM (inactive)	42.3 µM (inactive)	> 100 µM (inactive)	> 100 µM (inactive)		28.1 µM (inactive)		> 100 µM (inactive)				> 100 µM (inactive)			> 100 µM (inactive)
c1ccc(/C(=N\Nc2nc3ccccc3[nH]2)c2ccccn2)cc1	0.169 µM (active)	0.388 µM (active)	0.254 µM (active)	0.0101 µM (active)	5.5 µM (inactive)	0.268 µM (active)	0.222 µM (active)	0.531 µM (active)	0.298 µM (active)	0.182 µM (active)	0.012 µM (active)	0.348 µM (active)	< 0.0207 µM (active)	1.19 µM (inactive)	0.762 µM (active)	0.242 µM (active)	0.204 µM (active)	0.291 µM (active)	0.755 µM (active)	
OC1OC2COC(c3ccccc3)OC2C(O)C1O (stereo unspecified)	> 100 µM (inactive)	> 100 µM (inactive)	> 100 µM (inactive)	> 100 µM (inactive)		> 100 µM (inactive)	> 100 µM (inactive)		> 100 µM (inactive)		> 100 µM (inactive)		> 100 µM (inactive)			> 100 µM (inactive)	> 100 µM (inactive)	> 100 µM (inactive)		> 100 µM (inactive)
